Measured values as given in PMC10333884, “Large‐scale phosphomimetic screening identifies phospho‐modulated motif‐based protein interactions” (Molecular Systems Biology, 2023).
Residues, ends and D or L forms follow the SMILES beside them.

Key:
PDCD6IP Alix V domain [1] = molecular target: T1, PDCD6IP Alix V domain (Homo sapiens, UniProt Q8WUM4); assay: FP displacement assay, PDCD6IP Alix V domain; type: binding; settings: probe FITC-HIV1_Gag 5 nM, 50 mM sodium phosphate pH 7.4, room temperature, at least three technical replicates, read-out: KD values ± SEM
T1 construct: GST (cleaved yes); made in house; host or cells: Escherichia coli BL21-Gold(DE3)
T1 sequence (Q8WUM4 360-702): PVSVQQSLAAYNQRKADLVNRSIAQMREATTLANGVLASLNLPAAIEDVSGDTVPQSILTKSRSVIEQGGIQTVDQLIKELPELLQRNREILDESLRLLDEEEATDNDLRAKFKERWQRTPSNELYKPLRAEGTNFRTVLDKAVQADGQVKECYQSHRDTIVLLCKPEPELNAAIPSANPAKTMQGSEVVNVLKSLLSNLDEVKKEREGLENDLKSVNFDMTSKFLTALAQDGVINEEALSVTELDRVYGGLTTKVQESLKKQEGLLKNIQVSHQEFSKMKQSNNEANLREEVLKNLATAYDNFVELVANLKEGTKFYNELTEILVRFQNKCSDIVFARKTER
Description: (§1) FP experiments were performed as described previously (Kliche et al, [2021]). Shortly, in order to monitor the binding event, FITC‐labelled peptides were used (excitation 495 nm, emission: 535 nm) and the FP signal was recorded in mP on a SpectraMax iD5 Multi‐Mode Microplate Reader (Molecular Devices) by measuring the emitted light in two angels. The measurements were performed at room temperature and prepared in nonbinding black half area 96‐well microplates (Corning®; 50 μl/well). For measuring direct binding, that is saturation curves, a 1:1 dilution series of protein domain (25 μl/well) was generated in 50 mM sodium phosphate buffer pH 7.4 and the measurement performed with 5 nM FITC‐labelled peptide (25 μl/well). The buffer‐corrected values were subsequently plotted with PRISM and fitted to the quadratic equation (Gianni et al, [2005]).
(§2) The 1:1 dilution series in this experiment was performed with the unlabelled peptide in 50 mM sodium phosphate buffer pH 7.4, so that each well‐contained unlabelled peptide (25 μl) at a certain concentration and pre‐formed complex (25 μl). The KD values of this indirectly monitored binding event were calculated as described previously (Nikolovska‐Coleska et al, [2004]). All measurements were at least in technical triplicates as well as biological duplicates when indicated. An amplitude shift between repeat measurements in the displacement experiments was occasionally observed due to variations in the protein preparations. If that was the case, the “active” protein concentration was back‐calculated according to the quadratic equation from the saturation curves performed in parallel. By comparing the active protein concentrations in the complex between different protein preparations, the amplitude was normalised.

PDCD6IP Alix V domain [2] = molecular target: T1, PDCD6IP Alix V domain; assay: Phosphomimetic ProP-PD selection, PDCD6IP Alix V domain; settings: phosphomimetic enrichment score of the wild-type/phosphomimetic (E) pair at the phosphosite, PM_HD2 phage selection; positive = phosphomimetic enhances binding; P-value in brackets not taken
Description: (§3) Selections using the PM_HD2 phage library were performed as described previously with minor modification to the original protocol. The corresponding tag protein (either GST or MBP) was first used during negative selections. Selections were run for 4 days. • Bait and tag proteins (10–15 μg in 100 μl PBS) were immobilised in 96‐well MaxiSorb plate (NUNC) o.n. at 4°C. • Escherichia coli OmniMax bacteria were grown in 2YT medium supplemented with tetracycline (100 μg/ml) at 37°C and 200 rpm. • Plates with immobilised bait/tag proteins were blocked with 0.5% BSA in PBS for 1 h at 4°C. • Phage library (10 μl/well) was prepared by diluting 10× with PBS and adding one‐fourth of the volume of PEG/NaCl. For phage precipitation, prepared library was incubated for 10 min on ice followed by centrifugation for 10 min at 10,000 × g at 4°C. […]
(§4) Based on the results from phage pool ELISAs, samples from selection Day 3 and 4 were selected for NGS, as described previously (Benz et al, [2022]). • Peptide coding regions were amplified and dual‐barcoded by PCR. […] From the columns, samples were eluted with 30 μl TE (10 mM Tris–HCl, 1 mM EDTA. pH 7.5) buffer and quantified with Quant‐iT PicoGreen dsDNA Assay Kit. • Samples were sequenced on MiSeq (MSC 2.5.0.5/RTA 1.18.54) with a 151 nt (Read1) setup using “Version3” chemistry. […]

RANBP2 RanBD4 [3] = molecular target: T2, RANBP2 RanBD4 (Homo sapiens, UniProt P49792); assay: FP displacement assay, RANBP2 RanBD4; type: binding; settings: probe FITC-C7orf25 5 nM, 50 mM sodium phosphate pH 7.4, room temperature, at least three technical replicates, read-out: KD values ± SEM
T2 construct: GST (cleaved yes); made in house; host or cells: Escherichia coli BL21-Gold(DE3)
T2 sequence (P49792 2924-3050): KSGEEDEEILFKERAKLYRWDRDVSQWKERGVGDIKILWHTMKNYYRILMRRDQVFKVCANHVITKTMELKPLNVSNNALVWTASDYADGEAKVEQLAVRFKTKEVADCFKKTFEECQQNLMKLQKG
Description: as §1, §2

RANBP2 RanBD4 [4] = molecular target: T2, RANBP2 RanBD4; assay: Phosphomimetic ProP-PD selection, RANBP2 RanBD4; settings: phosphomimetic enrichment score of the wild-type/phosphomimetic (E) pair at the phosphosite, PM_HD2 phage selection; positive = phosphomimetic enhances binding; P-value in brackets not taken
Description: as §3, §4

SNX27 PDZ [5] = molecular target: T3, SNX27 PDZ (Homo sapiens, UniProt Q96L92); assay: FP displacement assay, SNX27 PDZ (MBP-tagged); type: binding; settings: for Kd: MBP-tagged domain, probe FITC-SYT16 5 nM, 50 mM sodium phosphate pH 7.4, room temperature, at least three technical replicates, read-out: KD values ± SEM
T3 construct: SNX27_PDZ__Q96L92_40_141; made in house; host or cells: Escherichia coli BL21-Gold(DE3)
Description: For FP, ITC and crystallisation, the tag was removed with the appropriate protease either on beads (0.1 mg/ml thrombin (Cytiva) in PBS, 1 mM dithiothreitol (DTT)) or by dialysis in cleavage buffer (Human Rhinovirus (HRV) 3C protease: 50 mM Tris–HCl pH 7.4, 150 mM NaCl, 1 mM β‐mercaptoethanol), both procedures were overnight. In case of HRV protease cleavage, the tag was separated from the target protein domain by reverse ion metal affinity chromatography using Ni^2+ beads for purification, whereas thrombin was removed using a benzamidine column (Cytiva). Affinity measurements for SNX27 PDZ were performed on the MBP‐tagged construct, as well as PIN1 WW domain on the GST‐tagged construct. For FP and ITC, proteins were dialysed in 50 mM sodium phosphate buffer pH 7.4, 1 mM DTT. For crystallisation of the NTD of clathrin, the protein was further purified by a S200 Sepharose column (Cytiva) using 20 mM Tris–HCl pH 7.4, 150 mM NaCl and 1 mM DTT.
as §1, §2

SNX27 PDZ [6] = molecular target: T3, SNX27 PDZ; assay: Phosphomimetic ProP-PD selection, SNX27 PDZ; settings: phosphomimetic enrichment score of the wild-type/phosphomimetic (E) pair at the phosphosite, PM_HD2 phage selection; positive = phosphomimetic enhances binding; P-value in brackets not taken
Description: as §3, §4

SMILES | Kd (PDCD6IP Alix V domain [1]) [µM] | PES (PDCD6IP Alix V domain [2]) | Kd (RANBP2 RanBD4 [3]) [µM] | PES (RANBP2 RanBD4 [4]) | Kd (SNX27 PDZ [5]) [µM] | PES (SNX27 PDZ [6]) | further results
CC(=O)N[C@@H](CCCCN)C(=O)N[C@@H](Cc1ccc(O)cc1)C(=O)N[C@@H](CO)C(=O)N[C@@H](CC(=O)O)C(=O)N[C@@H](CC(=O)O)C(=O)N[C@H](C(=O)N1CCC[C@H]1C(=O)N[C@@H](CC(C)C)C(=O)N1CCC[C@H]1C(=O)N[C@@H](CCC(=O)O)C(=O)N1CCC[C@H]1C(=O)N[C@@H](CO)C(=O)N[C@@H](Cc1ccc(O)cc1)C(=O)N[C@@H](CCCCN)C(=O)N[C@@H](Cc1ccc(O)cc1)C(=O)N[C@@H](CC(N)=O)C(N)=O)[C@@H](C)O [DHX38_260–275 E] (Ac-KYSDDTPLPEPSYKYN-NH2) |  |  | 470 ± 35 | 3 (0.04) |  |  | 
CC[C@H](C)[C@H](NC(=O)[C@H](CCCCN)NC(=O)[C@H](CC(C)C)NC(=O)[C@@H]1CCCN1C(=O)[C@H](CCC(=O)O)NC(=O)[C@@H](NC(=O)[C@H](CCC(N)=O)NC(=O)[C@@H]1CCCN1C(=O)[C@H](Cc1ccc(O)cc1)NC(=O)[C@H](CC(C)C)NC(=O)[C@@H]1CCCN1C(=O)[C@H](CCCNC(=N)N)NC(=O)[C@H](CC(C)C)NC(=O)[C@@H]1CCCN1C(=O)[C@H](CO)NC(=O)[C@H](C)NC(C)=O)[C@@H](C)CC)C(N)=O [FOXK1_212–227 E] (Ac-ASPLRPLYPQIEPLKI-NH2) | 13 ± 1 | 2.9 (0.04) |  |  |  |  | 
CSCC[C@H](NC(=O)CNC(C)=O)C(=O)N[C@H](C(=O)N[C@@H](CO)C(=O)N[C@@H](CCC(=O)O)C(=O)N[C@H](C(=O)N[C@@H](CO)C(=O)N[C@@H](Cc1ccccc1)C(=O)N[C@@H](CC(N)=O)C(=O)NCC(=O)NCC(=O)N[C@@H](Cc1ccc(O)cc1)C(N)=O)[C@@H](C)O)C(C)C [DAXX606–616 E] (Ac-GMVSETSFNGGY-NH2) |  |  |  |  | 23 ± 4 | 6 (0.00063) | IC50 (SNX27 PDZ [5]; Fig 4B, SNX27 PDZ, technical triplicates, read-out: IC50 values of displacement curves, with SEM): 117 ± 25 µM

Further lines, with some results ahead:

Kd (PDCD6IP Alix V domain [1]) [µM] | PES (PDCD6IP Alix V domain [2]) | Kd (RANBP2 RanBD4 [3]) [µM] | PES (RANBP2 RanBD4 [4]) | Kd (SNX27 PDZ [5]) [µM] | PES (SNX27 PDZ [6]) | SMILES | further results
88 ± 7 | 0.66 (0.34) |  |  |  |  | CC(=O)N[C@H](C(=O)N[C@@H](CCC(=O)O)C(=O)N1CCC[C@H]1C(=O)N[C@@H](CC(C)C)C(=O)N[C@H](C(=O)N[C@@H](CO)C(=O)N[C@@H](CC(C)C)C(=O)N[C@@H](Cc1ccc(O)cc1)C(=O)N1CCC[C@H]1C(=O)N[C@@H](C)C(=O)N[C@@H](CC(C)C)C(=O)N[C@@H](CCC(=O)O)C(=O)N[C@@H](C)C(=O)N[C@@H](CCCNC(=N)N)C(=O)N[C@@H](C)C(=O)N[C@@H](CC(C)C)C(N)=O)C(C)C)[C@@H](C)O [OTUD5_507–522 E] (Ac-TEPLVSLYPALEARAL-NH2) | 
 |  |  |  | 680 ± 40 | −6 (0.00063) | CC(=O)N[C@@H](CC(N)=O)C(=O)N[C@@H](CC(C)C)C(=O)N[C@@H](CC(C)C)C(=O)N[C@@H](CC(C)C)C(=O)N[C@@H](CCC(=O)O)C(=O)N[C@@H](CCCNC(=N)N)C(=O)N[C@@H](CC(=O)O)C(=O)N[C@H](C(=O)N[C@@H](CCC(=O)O)C(=O)N[C@@H](Cc1ccccc1)C(=O)N[C@H](C(=O)N[C@H](C(=O)N[C@@H](C)C(=O)N1CCC[C@H]1C(=O)N[C@@H](CC(=O)O)C(=O)N[C@@H](Cc1ccc(O)cc1)C(N)=O)C(C)C)[C@@H](C)O)[C@@H](C)O [CDC25C30–44 E] (Ac-NLLLERDTEFTVAPDY-NH2) | 
 |  | 1080 | −4 (0.0044) |  |  | CC(=O)N[C@@H](Cc1c[nH]cn1)C(=O)N[C@@H](CC(C)C)C(=O)N1CCC[C@H]1C(=O)N[C@@H](CC(C)C)C(=O)N[C@@H](CC(N)=O)C(=O)N[C@@H](CCC(=O)O)C(=O)N1CCC[C@H]1C(=O)N[C@@H](CC(C)C)C(=O)N1CCC[C@H]1C(=O)NCC(=O)N[C@@H](CO)C(=O)N[C@@H](CCC(=O)O)C(=O)N[C@@H](CC(C)C)C(=O)N[C@H](C(=O)N[C@@H](CCCCN)C(=O)N[C@@H](Cc1ccc(O)cc1)C(N)=O)[C@@H](C)O [INTS6_145–159 E] (Ac-HLPLNEPLPGSELTKY-NH2) | 
